Calls of active or inactive are those of the source. The rule behind the calls is not given here.
Tests used:
[1] = test system: Human coronavirus 229E; test: Antiviral activity against HCoV-229E; type: functional, organism-based
[2] = test system: Human coronavirus OC43; test: Antiviral activity against HCoV-OC43; type: functional, organism-based
[3] = biological target: T1, DIS3-like exonuclease 2 (Homo sapiens) (UniProt Q8IYB7); test: Binding affinity to DIS3L2 in human NCI-H460 cells assessed as increase in thermal stability at 10 uM incubated for 6 hrs followed by heat exposure at 55 to 75 degreeC for 3 mins by CETSA; type: cell-based; conditions: time 363.0 min
T1 sequence (whole entry): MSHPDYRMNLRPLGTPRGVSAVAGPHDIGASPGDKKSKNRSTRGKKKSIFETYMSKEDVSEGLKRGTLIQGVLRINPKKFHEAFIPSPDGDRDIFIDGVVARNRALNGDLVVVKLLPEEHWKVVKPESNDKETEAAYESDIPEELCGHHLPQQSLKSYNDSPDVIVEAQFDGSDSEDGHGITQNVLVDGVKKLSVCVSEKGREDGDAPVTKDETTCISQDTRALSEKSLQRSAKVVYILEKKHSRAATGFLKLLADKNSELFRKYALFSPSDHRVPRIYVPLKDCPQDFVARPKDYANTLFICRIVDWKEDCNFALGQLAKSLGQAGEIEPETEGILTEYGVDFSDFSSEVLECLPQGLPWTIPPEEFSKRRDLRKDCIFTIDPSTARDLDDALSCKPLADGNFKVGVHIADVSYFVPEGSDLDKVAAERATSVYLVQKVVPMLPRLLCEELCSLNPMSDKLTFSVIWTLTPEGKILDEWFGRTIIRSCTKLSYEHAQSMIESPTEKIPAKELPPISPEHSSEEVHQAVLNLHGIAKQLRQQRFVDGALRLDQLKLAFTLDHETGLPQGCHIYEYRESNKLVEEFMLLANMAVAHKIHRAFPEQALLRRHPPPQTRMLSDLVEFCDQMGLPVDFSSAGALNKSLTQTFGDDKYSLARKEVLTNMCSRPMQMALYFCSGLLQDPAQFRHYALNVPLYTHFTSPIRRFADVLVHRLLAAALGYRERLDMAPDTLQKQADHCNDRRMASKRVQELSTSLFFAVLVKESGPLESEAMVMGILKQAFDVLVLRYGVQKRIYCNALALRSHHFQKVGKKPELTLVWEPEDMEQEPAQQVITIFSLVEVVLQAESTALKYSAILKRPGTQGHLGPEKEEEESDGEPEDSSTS

[4] = test system: Human coronavirus OC43; test: Antiviral activity against HCoV-OC43 infected in human NCI-H460 cells incubated for 72 hrs by CCK8 assay; type: functional, organism-based; conditions: Betacoronavirus 1, NCI-H460, 72 h
[5] = Cytotoxicity against human NCI-H460 cells incubated for 72 hrs by CCK8 assay; type: toxicity, cell-based; conditions: read-out: EC50
[6] = Selectivity index, ratio of CC50 for cytotoxicity against human NCI-H460 cells to EC50 for antiviral activity against HCoV-OC43 infected in human NCI-H460 cells; type: toxicity, cell-based, NCI-460; conditions: read-out: Ratio CC50/EC50
[7] = test system: Human coronavirus 229E; test: Antiviral activity against HCoV-229E at replication stage in human Huh-7 cells assessed as dsRNA level at 2 uM treated immediately after infection incubated for 4 to 10 hrs by immunofluorescence based analysis; type: functional, organism-based; conditions: time 4-10 hrs
[8] = test system: FSE RNA pseudoknot; test: Binding affinity to CM5 chip-immobilized coronavirus FSE RNA pseudoknot assessed as dissociation constant by SPR analysis; type: nucleic-acid assay, unidentified human coronavirus
[9] = biological target: T1, DIS3-like exonuclease 2 (Homo sapiens); test: (§1) Binding affinity to DIS3L2 (unknown origin) assessed as dissociation constant by SPR analysis
[10] = biological target: T2, DIS3-like exonuclease 2 (Homo sapiens, UniProt Q8IYB7); test: as §1
T2 sequence (Q8IYB7 whole entry): T1 sequence (whole entry)

[11] = test system: Human coronavirus OC43; test: Antiviral activity against HCoV-OC43 at replication stage in human Huh-7 cells assessed as dsRNA level at 2 uM treated immediately after infection incubated for 4 to 10 hrs by immunofluorescence based analysis; type: functional, organism-based; conditions: time 4-10 hrs

Molecule	EC50 ([1]; Human coronavirus 229E)	EC50 ([2]; Betacoronavirus 1)	EC50 [4]	CC50 at 72 h [5]	selectivity ratio [6]	other results
CCC(=O)O[C@@H]1CC(=O)O[C@H](C)C/C=C/C=C/[C@H](O[C@H]2CC[C@H](N(C)C)[C@@H](C)O2)[C@H](C)C[C@H](CC=O)[C@H](O[C@@H]2O[C@H](C)[C@@H](O[C@H]3C[C@@](C)(O)[C@@H](O)[C@H](C)O3)[C@H](N(C)C)[C@H]2O)[C@H]1OC	27.4 µM	> 50 µM	–	–	–	–
SPIRAMYCIN	–	–	–	–	–	EC50 [1]: 29.3 µM; EC50 [2]: > 50 µM
CO[C@@H]1[C@@H](O[C@@H]2O[C@H](C)[C@@H](O[C@H]3C[C@@](C)(O)[C@@H](OC(=O)CC(C)C)[C@H](C)O3)[C@H](N(C)C)[C@H]2O)[C@@H](CC=O)C[C@@H](C)[C@@H](O[C@H]2CC[C@H](N(C)C)[C@@H](C)O2)/C=C/C=C/C[C@@H](C)OC(=O)C[C@H]1O	3.61 µM	5.95 µM	–	–	–	–
CO[C@@H]1[C@@H](O[C@@H]2O[C@H](C)[C@@H](O[C@H]3C[C@@](C)(O)[C@@H](OC(=O)Cc4ccc(Cl)cc4)[C@H](C)O3)[C@H](N(C)C)[C@H]2O)[C@@H](CC=O)C[C@@H](C)[C@@H](O[C@H]2CC[C@H](N(C)C)[C@@H](C)O2)/C=C/C=C/C[C@@H](C)OC(=O)C[C@H]1O	–	–	0.85 µM	17.4 µM	20.5	Activity [3]: Active; Activity [7]: Active; Kd [8]: 7.29 µM; Activity ([8]; unidentified human coronavirus): Dose-dependent-effect; Activity [9]: Dose-dependent-effect; Kd [10]: 4.67 µM; Activity [11]: Active
CCCCC(=O)O[C@H]1[C@H](C)O[C@@H](O[C@H]2[C@H](N(C)C)[C@@H](O)[C@H](O[C@H]3[C@@H](CC=O)C[C@@H](C)[C@@H](O[C@H]4CC[C@H](N(C)C)[C@@H](C)O4)/C=C/C=C/C[C@@H](C)OC(=O)C[C@@H](O)[C@@H]3OC)O[C@@H]2C)C[C@@]1(C)O	–	–	5.61 µM	34 µM	6.1	–
CO[C@@H]1[C@@H](O[C@@H]2O[C@H](C)[C@@H](O[C@H]3C[C@@](C)(O)[C@@H](O)[C@H](C)O3)[C@H](N(C)C)[C@H]2O)[C@@H](CC=O)C[C@@H](C)[C@@H](O[C@H]2CC[C@H](N(C)C)[C@@H](C)O2)/C=C/C=C/C[C@@H](C)OC(=O)C[C@H]1OC(C)=O	25.4 µM	> 50 µM	–	–	–	–
CO[C@@H]1[C@@H](O[C@@H]2O[C@H](C)[C@@H](O[C@H]3C[C@@](C)(O)[C@@H](OC(=O)Cc4ccc(Cl)cc4)[C@H](C)O3)[C@H](N(C)C)[C@H]2OC(C)=O)[C@@H](CC=O)C[C@@H](C)[C@@H](O[C@H]2CC[C@H](N(C)C)[C@@H](C)O2)/C=C/C=C/C[C@@H](C)OC(=O)C[C@H]1O	–	–	> 6.25 µM	7.4 µM	< 1.2	–
CO[C@@H]1[C@@H](O[C@@H]2O[C@H](C)[C@@H](O[C@H]3C[C@@](C)(O)[C@@H](OC(=O)CC(C)C)[C@H](C)O3)[C@H](N(C)C)[C@H]2O)[C@@H](CC=O)C[C@@H](C)[C@@H](O[C@H]2CC[C@H](N(C)C)[C@@H](C)O2)/C=C/C=C/C[C@@H](C)OC(=O)C[C@H]1OC(C)=O	6.38 µM	11.8 µM	–	–	–	–
CCC(=O)O[C@@H]1CC(=O)O[C@H](C)C/C=C/C=C/[C@H](O[C@H]2CC[C@H](N(C)C)[C@@H](C)O2)[C@H](C)C[C@H](CC=O)[C@H](O[C@@H]2O[C@H](C)[C@@H](O[C@H]3C[C@@](C)(O)[C@@H](OC(=O)CC(C)C)[C@H](C)O3)[C@H](N(C)C)[C@H]2O)[C@H]1OC	3.52 µM	10.2 µM	–	–	–	–
CO[C@@H]1[C@@H](O[C@@H]2O[C@H](C)[C@@H](O[C@H]3C[C@@](C)(O)[C@@H](OC(=O)CC(C)C)[C@H](C)O3)[C@H](N(C)C)[C@H]2OC(C)=O)[C@@H](CC=O)C[C@@H](C)[C@@H](O[C@H]2CC[C@H](N(C)C)[C@@H](C)O2)/C=C/C=C/C[C@@H](C)OC(=O)C[C@H]1O	–	–	7.89 µM	25.7 µM	3.3	–

— ChEMBL document CHEMBL6103594, “Synthesis and evolution of 16-membered macrolide carrimycin derivatives as a novel class of anti-HCoV-OC43 agents targeting viral FSE RNA” (Eur J Med Chem, 2025)
